Measurements published in patent publication US11124479B2, “Oligopyrroles as antagonists of islet amyloid polypeptide oligomerization” (New York University, priority 2017, dated 2021).

Columns and labels:
[1] = Partition coefficient; assay type: physicochemical
[2] = target: T1, islet amyloid polypeptide (IAPP) (Homo sapiens, UniProt P10997); test: ThT-based kinetic assay of IAPP fibrillation; assay type: biochemical; details: for relative t50 of IAPP fibrillation versus control reaction / inhibition of IAPP fibrillation (in words): 15 μM IAPP, equimolar ratio; for inhibition of IAPP fibrillation (in words): FIG. 2C; for inhibition capacity towards IAPP fibrillation (in words): ThT assays under our conditions
T1 construct: IAPP is a 37 residue neuropancreatic hormone peptide; purchased Anaspec (Fremont, Calif.)
T1 sequence (P10997 34-70 limits assumed): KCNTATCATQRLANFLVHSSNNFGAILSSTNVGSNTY
Excerpt: The aggregation kinetics of IAPP was probed using an exogenous reporter, Thioflavin T (ThT), which quantifies the amount of fibers in solution without perturbing the aggregation kinetics of IAPP (see Wolfe, L. S.; Calabrese, M. F.; Nath, A.; Blaho, D. V.; Miranker, A. D.; Xiong, Y. Proc. Natl. Acad. Sci. U.S.A. 2010, 107, 16863-16868; Levine, H. Protein Sci. 1993, 2, 404-410). […] The kinetics of IAPP fibrillation was quantified using the reaction midpoint, t50, which is the time required to reach 50% fluorescence in the fibrillation reaction (FIG. 8).
Kinetic assays were conducted on a FlexStation 3 Multi-Mode Microplate reader from Molecular Devices (Sunnyvale, Calif.). Experiments were conducted in triplicate in a 96-well plate with a final volume of 200 μL per well. Every measurement was an average of 50 readings. The aggregation of IAPP was initiated by its addition from a stock solution (1 mM in DMSO) to phosphate buffer. The stoichiometry ratio for ThT to IAPP was 0.5:1. Peptide aggregation was monitored by ThT fluorescence (λex=445 nm and λem=485 nm). The blank sample contained all the components of the peptide samples except peptide. The sample data were processed by subtracting the blank and renormalizing the fluorescence intensity by setting the maximum value to 1.
Kinetic assays in the presence of the compounds of the invention were conducted under the same conditions. Small molecules were added from a stock solution (1 mM or 10 mM in DMSO) to keep the final concentration of DMSO less than 1.0% (v/v). Small molecules were added to the wells with ThT and buffer and mixed gently with a pipette before adding IAPP. To keep the conditions identical, an equal amount of DMSO was added to the wells with IAPP only reactions. For the aggregation kinetics of Aβ42, the peptide was dissolved in 1N NaOH (0.5-1 mM) and vortexed for 2 min. to ensure the complete solubility. The aggregation of 3 μM Aβ42 was initiated by addition of peptide from a stock solution (in 1 N NaOH, 0.5-1 mM) to phosphate buffer.
Kinetic profiles were processed using Origin (version 9.1). Kinetic curves were fit using the built-in sigmoidal fit. Each run was fit independently to extract the t50 (time required to reach 50% of the maximum fluorescence intensity). Error bars represent standard deviations from the mean of at least three independent experiments.
The membrane model system selected for the amyloid assays is a mixture of DOPG (dioleoylphosphatidylglycerol) and DOPC (dioleoylphosphatidylcholine) at 3:7 molar ratio, which mimics physiological conditions (Ono, K.; Condron, M. M.; Teplow, D. B. Proc. Natl. Acad. Sci. U.S.A. 2009, 106, 14745-14750). The lipid catalyzed aggregation of IAPP was initiated by adding freshly prepared 15 μM IAPP (1 mM stock solution in DMSO) to the phosphate buffer (50 mM NaPi, 150 mM KCl, pH 7.4) containing 15 μM ThT and 750 μM of unilamellar liposomes (LUVs, DOPG:DOPC, 3:7, d=100 nm).

[3] = target: T2, IAPP-induced lipid membrane leakage (Homo sapiens, UniProt P10997); test: Fluorescein-based liposome leakage assay; assay type: biochemical; details: 4 μM IAPP, equimolar ratio
T2 construct: IAPP is a 37 residue neuropancreatic hormone peptide; purchased Anaspec (Fremont, Calif.)
T2 sequence (P10997 34-70 limits assumed): T1 sequence (P10997 34-70 limits assumed)
Excerpt: Colocalization of IAPP at the mitochondrial membrane and the subsequent membrane poration is considered to be one of the potential contributors to β-cell toxicity. Therefore, a liposome leakage assay could serve as a surrogate marker for IAPP induced cytotoxicity (see Last, N. B.; Miranker, A. D. Proc. Natl. Acad. Sci. U.S.A. 2013, 110, 6382-6387; and Last, N. B.; Rhoades, E.; Miranker, A. D. Proc. Natl. Acad. Sci. U.S.A. 2011, 108, 9460-9465). A previously reported fluorescein-based liposome leakage assay was employed to test the effect of ADH-101 on membrane associated α-helical intermediates of IAPP. Briefly, fluorescein-dextran conjugate (MW=70 kDa) was encapsulated in unilamaller extruded lipid vesicles (DOPG:DOPC, 3:7, d=100 nm). The size of fluorescein-dextran conjugate allows it to stay inside the lipid vesicles during IAPP mediated membrane poration. The leakage kinetics was probed by the quenching of fluorescence using a fluorescent quencher, DPX (p-xylene-bis-pyridinium […]). The kinetic profiles of leakage are single exponential with a decrease in fluorescence as a function of time. The leakage reaction was initiated by introducing 200 μM liposome into a solution of 4 μM IAPP and 6 mM of DPX. The introduction of the excess ionic concentration by DPX was counterbalanced by adjusting the buffer concentration. The kinetics of the leakage mediated by IAPP yielded a single exponential profile with a leakage rate of 7.3±1.1×10^−3 s^−1 (FIG. 5A).
The kinetics of liposome leakage induced by IAPP was monitored on QuantaMaster C-61 fluorescence spectrometer (Photon Technology International, Edison, N.J.) at 25° C. […] The stock solution of IAPP used in the measurements was kept in water at a concentration of 1 mM. The stock solution of water soluble quencher, DPX (p-xylene-bis-pyridinium bromide) was prepared in buffer (100 mM KCl, 50 mM NaPi, pH 7.4) at a concentration of 100 mM. The small molecules used in the leakage assay were dissolved in DMSO with a concentration range of 10-20 mM. The final concentration of dye encapsulating liposome, DPX, human IAPP, and small molecules were 200, 6000, 4, and 4 μM respectively. The final buffer concentration was corrected using higher concentration of buffer to keep the osmolality balanced. […] To determine the leakage rate constant, first the fluorescence was normalized and corrected by subtracting it from normalized fluorescence of control reaction. The corrected fluorescence was fit using equation given below (using Origin 9.1). All the experiments were performed in triplicate and the error values presented are standard deviations. a*exp(−b*x)+c (2) a=amplitude from 100% unleaked to 0% leaked c=final fraction of unleaked liposome y=change in fluorescence b=leakage rate constant

[4] = lipid catalyzed (750 μM LUVs, DOPG:DOPC 3:7)

COC(=O)c1ccc(NC(=O)c2ccc(NC(=O)c3ccc([N+](=O)[O-])c(OCC(=O)O)n3)c(OCC(C)C)n2)c(OCC(=O)O)n1 [ADM-11, reference compound]
logP [1]: -0.8 | relative t50 of IAPP fibrillation versus control reaction [2, 4]: 1.9 fold

CCOC(=O)c1cc(NC(=O)c2cc(NC(=O)c3cc([N+](=O)[O-])cn3CC(C)C)cn2CC(C)C)cn1CC(C)C [ADH-105]
relative t50 of IAPP fibrillation versus control reaction ([2]; de novo / lipid free): 2.6 fold | relative t50 of IAPP fibrillation versus control reaction [2, 4]: 1.5 fold

COC(=O)c1ccc(NC(=O)c2ccc(NC(=O)c3ccc([N+](=O)[O-])c(OCC(=O)O)n3)c(OCC(C)C)n2)c(OCC(C)C)n1 [ADH-201, reference compound]
relative t50 of IAPP fibrillation versus control reaction [2, 4]: 1.4 fold

CCOC(=O)c1cc([N+](=O)[O-])cn1CC(C)C [ADH-113]
inhibition of IAPP fibrillation (in words) [2]: ineffective

CC1=C/C(=C(\c2ccc(N)c(S(=O)(=O)[O-])c2)c2ccc(N)c(S(=O)(=O)O)c2)C=C(S(=O)(=O)[O-])C1=N.[Na+].[Na+] [AF, Acid fuchsin, reference compound]
effect on IAPP induced liposome leakage (in words) [3]: unable to effect | inhibition capacity towards IAPP fibrillation (in words) [2]: moderate inhibition capacity

COc1cc(/C=C/C(=O)CC(=O)/C=C/c2ccc(O)c(OC)c2)ccc1O [Curcumin]
inhibition capacity towards IAPP fibrillation (in words) [2]: moderate inhibition capacity

CCOC(=O)c1cc(NC(=O)c2cc(NC(=O)c3cc([N+](=O)[O-])cn3CCCc3ccccc3)cn2CC(C)C)cn1CCC(=O)O [ADH-120]
antagonist of oligomerization, fibrillation, and/or aggregation of IAPP (in words) [2]: effective antagonist

CCOC(=O)c1cc([N+](=O)[O-])cn1CCC(=O)O [ADH-117]
inhibition of IAPP fibrillation (in words) [2]: ineffective

O=C(O[C@@H]1Cc2c(O)cc(O)cc2O[C@@H]1c1cc(O)c(O)c(O)c1)c1cc(O)c(O)c(O)c1 [EGCG, reference compound]
effect on IAPP induced liposome leakage (in words) [3]: unable to effect | inhibition capacity towards IAPP fibrillation (in words) [2]: moderate inhibition capacity
